This note sets out measurements from US12371454B2, “Cyclic peptide compound having Kras inhibitory action” (priority 2019, dated 2025).

Molecules are shown by their SMILES. Positions of bridges follow the written chain, without caps; N, C: chain ends. Non-standard residues stand in square brackets, D forms with d. Residues, ends and D or L forms follow the SMILES beside them. *: point of attachment. hPhe(3-Cl-4-CF3) = N[C@@H](CCc1ccc(C(F)(F)F)c(Cl)c1)C(=O)O; hPhe(4-CF3) = N[C@@H](CCc1ccc(C(F)(F)F)cc1)C(=O)O; NMePhe(4-Cl) = CN[C@@H](Cc1ccc(Cl)cc1)C(=O)O; NMePhe(4-Me) = CN[C@@H](Cc1ccc(C)cc1)C(=O)O; NMeGly(cPent) = CN[C@H](C(=O)O)C1CCCC1; NMe4Pal = CN[C@@H](Cc1ccncc1)C(=O)O; NMeY = CN[C@@H](Cc1ccc(O)cc1)C(=O)O; NMeCha = CN[C@@H](CC1CCCCC1)C(=O)O; NMeChg = CN[C@H](C(=O)O)C1CCCCC1; NMeF = CN[C@@H](Cc1ccccc1)C(=O)O; NMeI = CC[C@H](C)[C@H](NC)C(=O)O; NMeD = CN[C@@H](CC(=O)O)C(=O)O; NMeL = CN[C@@H](CC(C)C)C(=O)O; Chg = N[C@H](C(=O)O)C1CCCCC1; NMeV = CN[C@H](C(=O)O)C(C)C; d(β3hA) = C[C@@H](N)CC(=O)O; dNMeS = CN[C@H](CO)C(=O)O; NMeA = CN[C@@H](C)C(=O)O; NMeAib = CNC(C)(C)C(=O)O; Piperidide = C1CCN(*)CC1; Pyrrolidide = C1CCN(*)C1; Ac5c = NC1(C(=O)O)CCCC1; Aze = O=C(O)[C@@H]1CCN1; Abu = CC[C@H](N)C(=O)O; Isopentyl = CC(C)CC*; NPrGly = CCCNCC(=O)O; CF3 = FC(F)(F)*; Sar = CNCC(=O)O

T1 sequence (P01116 1-188 isoform P01116-2 G12D): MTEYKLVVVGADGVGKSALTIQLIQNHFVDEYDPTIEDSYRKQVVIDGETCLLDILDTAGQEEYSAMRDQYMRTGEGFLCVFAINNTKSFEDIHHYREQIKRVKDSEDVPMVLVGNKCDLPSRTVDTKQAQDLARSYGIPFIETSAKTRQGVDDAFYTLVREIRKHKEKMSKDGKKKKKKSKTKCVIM

The test concerns the target T1, Kras and SOS1 (biotin-tagged human Kras loaded with GDP, His-tagged human SOS1) (Homo sapiens, UniProt P01116, G12D).
T1 construct: made in house; host or cells: E. coli (stated for Kras only)
Description: Protein-protein interaction inhibition between Kras and SOS1 (KrasGl2D-SOS PPI) using AlphaScreen. As to conditions: AlphaScreen; biotin-tagged human Kras loaded with GDP, His-tagged human SOS1; read-out: KRAS G12D-SOS PPI IC50. The class given is binding. In short, it runs like this: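 Energy transfer from nickel-chelate donor beads bound to His-SOS1 to streptavidin acceptor beads bound to biotin-Kras, expressed in E. coli and loaded with GDP after purification, was monitored. Donors were excited at 680 nm; singlet oxygen reaching acceptors gave emission read at 520-620 nm.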
In the case of `CC[C@H](C)[C@@H]1NC(=O)[C@H](CC(C)C)N(C)C(=O)C[C@@H](C(=O)N(C)C)N(C)C(=O)[C@H]([C@@H](C)CC)N(C)C(=O)C2(CCCC2)NC(=O)[C@H](Cc2ccc(OC(F)(F)F)cc2)N(C)C(=O)[C@H](CCc2ccc(C(F)(F)F)c(Cl)c2)NC(=O)CN(C)C(=O)[C@H](Cc2ccc(C)cc2)N(C)C(=O)[C@@H]2CCN2C(=O)[C@H](C)N(C)C1=O` [Compound 1902] ([NMeL]I[NMeA][Aze][NMePhe(4-Me)][Sar][hPhe(3-Cl-4-CF3)][NMeY](CF3)[Ac5c][NMeI][NMeD]-NMe2; lactam N-11), the half-inhibitory concentration (IC50) (in general, the concentration that inhibits the measured activity by half) stood at 54 nM. Turning to `CCCN1CC(=O)N(C)[C@@H](CC2CCCCC2)C(=O)N(C)CC(=O)N[C@@H](CCc2ccc(C(F)(F)F)c(Cl)c2)C(=O)N2CCC[C@H]2C(=O)NC2(CCCC2)C(=O)N(C)[C@@H](C(C)C)C(=O)N[C@H](C)CC(=O)N(C)[C@@H](CC(C)C)C(=O)N[C@@H]([C@@H](C)CC)C(=O)N(C)CC1=O` [Compound 405] (cyclo([Ac5c][NMeV][d(β3hA)][NMeL]I[Sar][NPrGly][NMeCha][Sar][hPhe(3-Cl-4-CF3)]P)), the IC50 was 270 nM. With `CC[C@H](C)[C@@H]1NC(=O)[C@H](C)N(C)C(=O)C[C@@H](C(=O)N2CCCC2)NC(=O)[C@H](C(C)C)N(C)C(=O)[C@H](Cc2ccccc2)N(C)C(=O)[C@H](CC(C)C)N(C)C(=O)[C@H](CCc2ccc(C(F)(F)F)cc2)NC(=O)CN(C)C(=O)[C@H](Cc2ccc(Cl)cc2)N(C)C(=O)CN(C)C(=O)CN(C)C1=O` [Compound 152] ([NMeA]I[Sar][Sar][NMePhe(4-Cl)][Sar][hPhe(4-CF3)][NMeL][NMeF][NMeV]D-Pyrrolidide; lactam N-11) the figure was 110 nM; with `CC[C@H](C)[C@@H]1NC(=O)[C@H](CC(C)C)N(C)C(=O)C[C@@H](C(=O)N2CCCCC2)N(C)C(=O)[C@H](C2CCCCC2)N(C)C(=O)C2(CCCC2)NC(=O)[C@H](Cc2ccncc2)N(C)C(=O)[C@H](CCc2ccc(C(F)(F)F)c(Cl)c2)NC(=O)CN(C)C(=O)[C@H](CC2CCCCC2)N(C)C(=O)[C@@H]2CCN2C(=O)[C@H](C)N(C)C1=O` [Compound 656] ([NMeL]I[NMeA][Aze][NMeCha][Sar][hPhe(3-Cl-4-CF3)][NMe4Pal][Ac5c][NMeChg][NMeD]-Piperidide; lactam N-11), 17 nM. On to `CC(C)C[C@H]1C(=O)N[C@@H](C2CCCCC2)C(=O)N(C)CC(=O)N(C)CC(=O)N(C)[C@@H](CC2CCCCC2)C(=O)N(C)CC(=O)N[C@@H](CCc2ccc(C(F)(F)F)c(Cl)c2)C(=O)N2CCC[C@H]2C(=O)NC2(CCCC2)C(=O)N(C)[C@@H](C(C)C)C(=O)N(C)[C@H](C(=O)N2CCCCC2)CC(=O)N1C` [Compound 281] ([NMeL][Chg][Sar][Sar][NMeCha][Sar][hPhe(3-Cl-4-CF3)]P[Ac5c][NMeV][NMeD]-Piperidide; lactam N-11), for which the concentration for half-maximal inhibition (IC50) turned out to be 7.8 nM.

For `CC[C@H](C)[C@@H]1NC(=O)[C@H](C)N(C)C(=O)C[C@@H](C)NC(=O)[C@H](C(C)C)N(C)C(=O)C(C)(C)N(C)C(=O)[C@@H]2CCCN2C(=O)[C@H](CCc2ccc(C(F)(F)F)c(Cl)c2)NC(=O)CN(C)C(=O)[C@H](CC2CCCCC2)N(C)C(=O)CN(C)C(=O)CN(C)C1=O` [Compound 93] (cyclo(I[Sar][Sar][NMeCha][Sar][hPhe(3-Cl-4-CF3)]P[NMeAib][NMeV][d(β3hA)][NMeA])), the IC50 worked out at 6.9 nM. For `CC[C@H](C)[C@@H]1NC(=O)[C@H](CC(C)C)NC(=O)C[C@@H](C(=O)N2CCCCC2)N(C)C(=O)[C@H](C(C)C)N(C)C(=O)C2(CCCC2)NC(=O)[C@@H]2CCCN2C(=O)[C@H](CCc2ccc(C(F)(F)F)c(Cl)c2)NC(=O)CN(C)C(=O)[C@H](CC2CCCCC2)N(C)C(=O)[C@@H]2CCN2C(=O)[C@H](C)N(C)C1=O` [Compound 368] (LI[NMeA][Aze][NMeCha][Sar][hPhe(3-Cl-4-CF3)]P[Ac5c][NMeV][NMeD]-Piperidide; lactam N-11), the 50% inhibitory concentration (IC50) stood at 2.7 nM. For `CC[C@@H]1NC(=O)[C@H](CC(C)C)N(C)C(=O)C[C@@H](C(=O)N2CCCCC2)N(C)C(=O)[C@H](C2CCCCC2)N(C)C(=O)C2(CCCC2)NC(=O)[C@@H]2CCCN2C(=O)[C@H](CCc2ccc(C(F)(F)F)c(Cl)c2)NC(=O)CN(C)C(=O)[C@H](CC2CCCCC2)N(C)C(=O)CN(C)C(=O)CN(C)C1=O` [Compound 1775] ([NMeL][Abu][Sar][Sar][NMeCha][Sar][hPhe(3-Cl-4-CF3)]P[Ac5c][NMeChg][NMeD]-Piperidide; lactam N-11), the IC50 turned out to be 4 nM.

`CC[C@H](C)[C@@H]1NC(=O)[C@H](CC(C)C)N(C)C(=O)C[C@@H](C(=O)N2CCCCC2)N(C)C(=O)[C@H](C2CCCC2)N(C)C(=O)C2(CCCC2)NC(=O)[C@@H](COCCC(C)C)N(C)C(=O)[C@H](CCc2ccc(C(F)(F)F)c(Cl)c2)NC(=O)CN(C)C(=O)[C@H](CC2CCCCC2)N(C)C(=O)[C@@H]2CCN2C(=O)[C@H](C)N(C)C1=O` [Compound 1443] ([NMeL]I[NMeA][Aze][NMeCha][Sar][hPhe(3-Cl-4-CF3)][dNMeS](Isopentyl)[Ac5c][NMeGly(cPent)][NMeD]-Piperidide; lactam N-11): the half-maximal inhibitory concentration (IC50) was 23 nM.
